Counter-ions that a name gives are not always drawn.
Experiments:
ovarian tumor cells = experiment: Human tumor biopsy assay, ovarian tumor; type: cell-based; conditions: 20 μM NCO-700 and 0.4 mg/ml vinblastine, 1 hour
Experimental: (§1) 4. Human Tumor Biopsy Assays
(§2) where the effect of NCO-700 to enhance killing, by either vinblastine or adriamycin, of cancer cells cultured directly from patient's tumors (Von Hoff et al., Cancer Res. 43:1926-1931, 1983).
(§3) For the tumor biopsy assay, primary cell cultures were propagated directly from tumor specimens removed from patients. The cells were grown in suspension culture, treated with adriamycin or vinblastine plus NCO-700, and plated onto soft agar and incubated for two weeks before cell survival was determined.
(§4) In a final series of experiments, the effect of NCO-700 on survival of cells cultured directly from biopsied patient tumors was performed. This technique, referred to as a human tumor cloning system, was developed by Von Hoff and associates (Von Hoff et al., Cancer Res. 43:1926-1931, 1983) and was used clinically to predict the course of chemotherapy for these patients. In this method, tumor biopsies were separated into cell suspensions and treated for 1 hour with either 0.4 mg/ml vinblastine (VLB) or 0.5 mg/ml adriamycin (ADR) plus or minus 20 μM NCO-700. The cell suspensions were washed after one hour of incubation and plated with soft agar. After 14 days of incubation at 37°, the percent of colonies surviving was scored. […] In particular, the survival of tumor cells decreased to approximately 1/2 to 1/3 after exposure to NCO-700 and adriamycin. […]

DU-145 (prostate) = experiment: Cancer cell death assay, NCO-700 versus Calpain inhibitor 1; type: cell-based, human
Experimental: (§5) Cell death was measured quantitatively by the release of a marker intracellular enzyme, lactate dehydrogenase (LDH), from damaged or killed cells. LDH released into the extracellular fluid, was measured 24 hours after drug exposure to cancer cells and the enzyme activity was determined by the method of Decker et al. (J. Immunolog Methods 15:61-99, 1988).
Based on Experiment 1 above, the anti-cancer activity of NCO-700 and Calpain inhibitor 1 (N-acetyl-leu-leu-norleucinal, C20 H37 N3 O4) was tested in cancer cell death assays of human cancer cell line DU-145.

KB-CH 8-5 = experiment: In vivo model of tumorigenicity, nude mice carrying resistant human tumor
Experimental: 3. In Vivo Model of Tumorigenicity
where the effect of NCO-700 in the ability of adriamycin to reduce tumor mass in drug-resistant neoplasms was measured.
For the in vivo model of tumorigenicity, cell lines developed by Pastan and Gottesman which can grow as solid tumors in nude mice were utilized. This cell line was designated KB-CH 8-5, and was a nonreverting resistant cell line. All of these cancer cell lines were generously provided by Dr. Gottesman.
In the next series of experiments, an in vivo model of tumorigenicity was utilized to examine the effect of NCO-700 on tumor mass. These experiments were performed with the cell line KB-CH-8/5, which is a cell line developed by Drs. Gottesman and Pastan, specifically for use in animals as the cells from solid tumors in vivo. Nude male mice, 5-6 weeks old and weighing between 25-30 g, were injected subcutaneously with 2-5×10^6 KB-CH-8/5 cells and treated for 14 days with 0.6 mg/kg adriamycin and with or without NCO-700 in doses ranging from 0-80 mg/kg NCO-700 per day. The data shown in FIG. 37 were obtained by weighing the well-encapsulated, excised tumor and recording the body weight of the mice.

T-47D (breast) = experiment: Cancer cell survival assay, T-47D; type: cell-based, human; conditions: seven days, alone
Experimental: (§6) Cell survival was assayed in cultured tumor cells. From 500-1000 cells per well were plated in 24-welled culture dishes and exposed to drug for seven days. After drug exposure, a computerized cell imaging technique was utilized to ascertain the number of viable cells remaining in each culture. From the data, survival curves were plotted and a ED50 (drug concentration that permits 50% cell survival) were calculated.
(§7) The cancer cell survival assay is an important additional in vitro assay to assess the anti-neoplastic activity of compounds as the cells are given a prolonged exposure (seven days) to the drug. FIGS. 9-16 show the effect of increasing the dose of NCO-700 on the survival of a number of cancer cell lines. […] In the figures, the vertical axis is the object area, which is the number of surviving cancer cells calculated by a computer.

breast cancer cell lines = experiment: Cancer cell death assay (LDH release), breast lines; type: cell-based, human; conditions: compound alone, 24 hours
Experimental: (§8) 1. Cancer Cell Death Assay
as §5
(§9) All cell lines used in the present study were obtained from the American Type Tissue Culture Laboratory and cultured according to their specifications. All were human cancer lines unless otherwise noted. The following cell lines and their tissue of origin used in our studies were:
(§10) The first assays performed measured the anti-neoplastic activity of NCO-700, alone, in cell death assays of a wide variety of human cancer cells. The results of these experiments are shown in FIGS. 1-6, where a dose-response curve of NCO-700 versus % LDH release is plotted, with higher values of LDH released indicating greater anti-neoplastic activity (apoptosis).
(§11) In FIG. 8, a dose-response curve is shown of the effect of TOP-008 on the killing of breast, prostate and colon cell lines.

PC-3 (prostate) = experiment: Cancer cell survival assay, PC-3; type: cell-based, human; conditions: PC-3, seven days, alone
Experimental: as §6, §7

human cancer cells = experiment: Cancer cell death assays against a number of human cancer cells; type: cell-based; conditions: compounds alone; analogs at 25 μM (FIGS. 20-25)
Experimental: as §5
As described in Experiment 1, three different assays were performed to measure anti-neoplastic activity of compounds.
The first assays performed measured the anti-neoplastic activity of NCO-700 analogs in cell death assays against a number of human cancer cells. The results of these experiments are shown in FIGS. 20-25, where a bar graph indicates the activity of a particular analog as measured by the % LDH released, with higher values of LDH released indicating greater anti-neoplastic activity (apoptosis). All analogs were tested at a concentration of 25 μM.

LS-174T (colon) = experiment: Cancer cell survival assay, LS-174T; type: cell-based, human; conditions: seven days, alone
Experimental: as §6, §7

[1] = test system: prostate cancer cell lines; experiment: Cancer cell death assay (LDH release), prostate lines; type: cell-based, human; conditions: compound alone, 24 hours
Experimental: as §8, §5, §9, §10, §11

HEP-129 (liver) = experiment: Cancer cell death assay (LDH release), liver line; type: cell-based, human; conditions: compound alone, 24 hours
Experimental: FIG. 4 is a graph showing the relationship between LDH released and the concentration of NCO-700 in cancer cell death assays of human cancer cell lines MCF-7 (breast), HL-60 (leukemia), and HEP-129 (liver).
as §8, §5, §9, §10

LN (prostate) = experiment: Cancer cell survival assay, LN; type: cell-based, human; conditions: seven days, alone
Experimental: as §6, §7

kidney tumor cells = experiment: Human tumor biopsy assay, kidney tumor; type: cell-based; conditions: 20 μM NCO-700 and 0.5 mg/ml adriamycin, 1 hour
Experimental: as §1, §2, §3, §4

With `CCOC(=O)[C@@H]1O[C@H]1C(=O)N[C@@H](CC(C)C)C(=O)N1CCN(Cc2ccc(OC)c(OC)c2OC)CC1` [NCO-700, Bis[ethyl (2R,3R)-3-[(S)-3-methyl-1-[4-(2,3,4-trimethoxyphenylmethyl)piperazin-1-ylcarbonyl]butylcarbamoyl]oxirane-2-carboxylate] Sulfate] the “survival of tumor cells decreased to (fraction)” value (ovarian tumor cells) was “approximately 1/3”, the “potency relative to Calpain inhibitor 1” value (DU-145 (prostate); DU-145, 100 μM) was roughly 10 fold and the “anti-cancer activity compared with Calpain inhibitor 1” value (DU-145 (prostate); DU-145, FIG. 33) was “clearly superior to the other inhibitor”. The “effect on tumor, alone” value (KB-CH 8-5; NCO-700 on its own) was “not significantly effective on its own”, the “decline of tumor mass” value (KB-CH 8-5; NCO-700 with adriamycin) was 60% and the “loss of body weight” value (KB-CH 8-5; nude mice carrying resistant human tumor) was “without any corresponding loss of body weight”. The “potentiation of the effect of adriamycin on tumor” value (KB-CH 8-5; with 0.6 mg/kg adriamycin, 14 days, NCO-700 0-80 mg/kg per day) was “significantly potentiated the effect of adriamycin, especially at an amount of 40 mg/kg or more”, the “anti-neoplastic activity (cell survival)” value (T-47D (breast)) was “significant anti-neoplastic activity” and the “anti-neoplastic activity (LDH release)” value (breast cancer cell lines) was “the cells that were responding to NCO-700 were estrogen receptor negative”. The “anti-neoplastic activity (cell survival)” value (PC-3 (prostate)) was “significant anti-neoplastic activity”, the “anti-neoplastic activity, selectivity among human cancer cells” value (human cancer cells) was “highly effective as an anti-neoplastic agent versus selective tumors” and the “anti-neoplastic activity (cell survival)” value (LS-174T (colon)) was “significant anti-neoplastic activity”. The “anti-neoplastic activity (LDH release)” value [1] was “the cell lines that were testosterone receptor negative (and more malignant) responded very well”, the “anti-neoplastic activity (LDH release)” value (HEP-129 (liver)) was “did not respond” and the “anti-neoplastic activity (cell survival)” value (LN (prostate)) was “significant anti-neoplastic activity”. The “survival of tumor cells decreased to (fraction)” value (kidney tumor cells) was “approximately 1/4”.
